Test results: PMC5161041 (Journal of medicinal chemistry, 2016)

Experiments:
mice = assay: Locomotor activity studies in mice; settings: for locomotion: i.p.
[1] = biological target: Dopamine D2 receptor Gi1 activation (Homo sapiens, UniProt P14416); assay type: cell-based
[2] = introductory statement, no reference given; cited from earlier work
DAT = DAT (Rattus norvegicus, UniProt P23977); assay: DAT binding assay, [3H]WIN 35,428, rat striatal membranes; settings: 8c vs 10a, 9c vs 11a
[3] = Mouse microsomal stability assay; assay type: in vitro ADME; settings: mouse liver microsomes
NET = NET (Rattus norvegicus, UniProt Q63380); assay: NET binding assay, [3H]nisoxetine, rat frontal cortex membranes
Chain of NET (Q63380 1-617): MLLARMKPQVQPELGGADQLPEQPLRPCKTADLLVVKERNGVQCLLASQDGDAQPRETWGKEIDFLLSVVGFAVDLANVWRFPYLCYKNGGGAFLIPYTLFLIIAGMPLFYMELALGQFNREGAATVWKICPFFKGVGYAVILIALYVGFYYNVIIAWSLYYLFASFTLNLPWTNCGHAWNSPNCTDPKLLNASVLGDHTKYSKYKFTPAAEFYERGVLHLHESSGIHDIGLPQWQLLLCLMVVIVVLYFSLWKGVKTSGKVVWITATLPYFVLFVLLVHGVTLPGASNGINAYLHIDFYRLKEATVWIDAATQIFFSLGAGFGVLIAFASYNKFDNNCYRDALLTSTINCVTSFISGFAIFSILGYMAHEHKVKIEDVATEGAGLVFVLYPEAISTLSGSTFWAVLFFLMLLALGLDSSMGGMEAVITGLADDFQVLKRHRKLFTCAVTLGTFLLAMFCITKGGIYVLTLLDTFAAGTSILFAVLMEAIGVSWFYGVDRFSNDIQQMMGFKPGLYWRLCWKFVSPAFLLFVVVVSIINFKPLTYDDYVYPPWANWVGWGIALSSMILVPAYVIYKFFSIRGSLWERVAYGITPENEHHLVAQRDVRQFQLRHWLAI

Chain of Dopamine D2 receptor Gi1 activation (P14416 whole entry): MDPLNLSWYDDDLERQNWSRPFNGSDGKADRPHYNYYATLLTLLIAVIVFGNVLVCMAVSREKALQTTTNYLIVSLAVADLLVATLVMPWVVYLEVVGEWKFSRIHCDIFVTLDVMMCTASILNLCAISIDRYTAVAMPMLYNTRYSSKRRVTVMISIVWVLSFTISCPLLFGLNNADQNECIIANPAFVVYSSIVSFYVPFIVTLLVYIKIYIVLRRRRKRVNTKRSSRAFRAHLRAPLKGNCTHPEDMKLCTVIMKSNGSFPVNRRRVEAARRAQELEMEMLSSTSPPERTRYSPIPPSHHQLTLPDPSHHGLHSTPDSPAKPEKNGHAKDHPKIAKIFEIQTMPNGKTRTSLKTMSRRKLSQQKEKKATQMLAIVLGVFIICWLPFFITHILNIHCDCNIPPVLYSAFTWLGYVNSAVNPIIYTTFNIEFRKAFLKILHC
Chain of DAT (P23977 whole entry): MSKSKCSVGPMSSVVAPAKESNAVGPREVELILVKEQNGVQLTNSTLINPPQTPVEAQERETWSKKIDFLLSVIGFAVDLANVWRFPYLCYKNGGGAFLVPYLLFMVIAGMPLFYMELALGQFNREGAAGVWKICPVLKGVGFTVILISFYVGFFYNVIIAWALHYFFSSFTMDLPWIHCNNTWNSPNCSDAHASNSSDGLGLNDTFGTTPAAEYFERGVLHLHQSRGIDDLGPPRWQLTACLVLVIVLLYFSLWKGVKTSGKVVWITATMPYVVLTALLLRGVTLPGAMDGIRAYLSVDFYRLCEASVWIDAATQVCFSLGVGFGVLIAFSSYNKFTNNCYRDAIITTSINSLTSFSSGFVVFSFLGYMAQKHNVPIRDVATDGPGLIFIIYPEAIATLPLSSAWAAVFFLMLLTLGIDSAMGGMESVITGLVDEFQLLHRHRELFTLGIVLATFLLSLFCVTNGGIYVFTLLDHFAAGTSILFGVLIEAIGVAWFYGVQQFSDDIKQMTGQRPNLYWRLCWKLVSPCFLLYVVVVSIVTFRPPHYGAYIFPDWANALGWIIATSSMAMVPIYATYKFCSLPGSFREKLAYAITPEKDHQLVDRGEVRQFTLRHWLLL

| Structure (SMILES) | time in which metabolized [3] | Ki (NET) | also measured |
| --- | --- | --- | --- |
| NC(=O)C[S@@+]([O-])C(c1ccccc1)c1ccccc1 [(R)-2, reference compound] |  |  | locomotion (mice; mice, 10 mg/kg): very mild increase; locomotion (mice; mice, 30 mg/kg): significant dose-dependent increase in locomotion; IC50 [1]: > 10 µM |
| NC(=O)C[S+]([O-])C(c1ccccc1)c1ccccc1 (centres unmarked) [Compound 2, 2-[(diphenylmethyl)sulfinyl]acetamide] |  |  | water solubility [2]: essentially insoluble in water |
| CCCCN1C2CCC1CC(OC(c1ccc(F)cc1)c1ccc(F)cc1)C2 (centres unmarked) [Compound 3, 3-(bis(4-fluorophenyl)methoxy)-8-butyl-8-azabicyclo[3.2.1]octane] |  |  | IC50 [1]: 2 ± 0.73 µM |
| Fc1ccc(C(SCCNCCCc2ccccc2)c2ccc(F)cc2)cc1 [Compound 4, N-(2-((bis(4-fluorophenyl)methyl)thio)ethyl)-3-phenylpropan-1-amine] |  |  | IC50 [1]: > 10 µM |
| CC(O)CN1CCN(CCSC(c2ccccc2)c2ccccc2)CC1 (centres unmarked) [Compound 8c, 1-(4-(2-(Benzhydrylthio)ethyl)piperazin-1-yl)propan-2-ol] |  |  | fold decrease in DAT affinity on removal of the phenyl group (DAT): 25 fold |
| CC(O)CN1CCN(CC[S+]([O-])C(c2ccccc2)c2ccccc2)CC1 (centres unmarked) [Compound 9c, 1-(4-(2-(Benzhydrylsulfinyl)ethyl)piperazin-1-yl)propan-2-ol] |  |  | fold decrease in DAT affinity on removal of the phenyl group (DAT): 187 fold |
| [O-][S+](CCN1CCN(Cc2ccc(F)cc2)CC1)C(c1ccc(F)cc1)c1ccc(F)cc1 (centres unmarked) [Compound 9f, 1-(2-((Bis(4-fluorophenyl)methyl)sulfinyl)ethyl)-4-(4-fluorobenzyl)piperazine] | < 30 min | > 50 µM |  |
| [O-][S+](CCN1CCN(Cc2ccc(C(F)(F)F)cc2)CC1)C(c1ccc(F)cc1)c1ccc(F)cc1 (centres unmarked) [Compound 9g, 1-(2-((Bis(4-fluorophenyl)methyl)sulfinyl)ethyl)-4-(4-(trifluoromethyl)benzyl)piperazine] | < 30 min | > 50 µM |  |
| [O-][S+](CCN1CCN(Cc2ccc(Cl)cc2)CC1)C(c1ccc(F)cc1)c1ccc(F)cc1 (centres unmarked) [Compound 9h, 1-(2-((Bis(4-fluorophenyl)methyl)sulfinyl)ethyl)-4-(4-chlorobenzyl)piperazine] | < 30 min | > 50 µM |  |
| CC(O)CN1CCN(CC[S+]([O-])C(c2cccc(Cl)c2)c2cccc(Cl)c2)CC1 (centres unmarked) [Compound 9i, 1-(4-(2-((Bis(3-chlorophenyl)methyl)sulfinyl)ethyl)piperazin-1-yl)propan-2-ol] |  | > 50 µM |  |
| [O-][S+](CCN1CCN(CC(O)Cc2ccccc2)CC1)C(c1ccccc1)c1ccccc1 (centres unmarked) [Compound 11a, 1-(4-(2-(Benzhydrylsulfinyl)ethyl)piperazin-1-yl)-3-phenylpropan-2-ol] | < 30 min |  |  |
| [O-][S+](CCN1CCN(CC(O)Cc2ccccc2)CC1)C(c1ccc(F)cc1)c1ccc(F)cc1 (centres unmarked) [Compound 11b, 1-(4-(2-((Bis(4-fluorophenyl)methyl)sulfinyl)ethyl)piperazin-1-yl)-3-phenylpropan-2-ol] |  |  | locomotor stimulation compared to cocaine (mice; mice): only moderate locomotor stimulation in mice and was substantially less efficacious than cocaine; locomotion (mice; mice, 30 mg/kg): significant dose-dependent increase in locomotion; locomotor stimulation compared to cocaine (mice; mice, listed as 11d): far less efficacious than cocaine |
| CC(O)CN1CCN(C(=O)CSC(c2ccc(F)cc2)c2ccc(F)cc2)CC1 (centres unmarked) [Compound 13c, 2-((Bis(4-fluorophenyl)methyl)thio)-1-(4-(2-hydroxypropyl)piperazin-1-yl)ethan-1-one] | < 30 min |  |  |
| CC(O)CN1CCN(C(=O)CSC(c2cccc(Cl)c2)c2cccc(Cl)c2)CC1 (centres unmarked) [Compound 13g, 2-((Bis(3-chlorophenyl)methyl)thio)-1-(4-(2-hydroxypropyl)piperazin-1-yl)ethan-1-one] |  | > 50 µM |  |
| O=C(C[S+]([O-])C(c1ccc(F)cc1)c1ccc(F)cc1)N1CCN(CCCc2ccccc2)CC1 (centres unmarked) [Compound 14b, 2-((Bis(4-fluorophenyl)methyl)sulfinyl)-1-(4-(3-phenylpropyl)piperazin-1-yl)ethan-1-one] | < 30 min |  |  |
| O=C(C[S+]([O-])C(c1ccc(F)cc1)c1ccc(F)cc1)N1CCN(Cc2ccc(F)cc2)CC1 (centres unmarked) [Compound 14e, 2-((Bis(4-fluorophenyl)methyl)sulfinyl)-1-(4-(4-fluorobenzyl)piperazin-1-yl)ethan-1-one] | < 30 min |  |  |
| CC(O)CN1CCN(C(=O)C[S+]([O-])C(c2cccc(Cl)c2)c2cccc(Cl)c2)CC1 (centres unmarked) [Compound 14g, 2-((Bis(3-chlorophenyl)methyl)sulfinyl)-1-(4-(2-hydroxypropyl)piperazin-1-yl)ethan-1-one] |  | > 50 µM |  |
| COC(=O)[C@H]1[C@@H](OC(=O)c2ccccc2)C[C@@H]2CC[C@H]1N2C [cocaine, reference compound] |  |  | locomotion (mice; mice, 3, 10 mg/kg): robust dose-dependent increase in locomotion |
| CCc1cc(Cl)c(OC)c(C(=O)NC[C@@H]2CCCN2CC)c1O [eticlopride] |  |  | IC50 [1]: 0.0021 ± 0.0008 µM |
